# Paper PMC12030650, “Synthesis, Antitumor Activities, and Apoptosis-Inducing Activities of Schiff’s Bases Incorporating Imidazolidine-2,4-dione Scaffold: Molecular Docking Studies and Enzymatic Inhibition Activities” (Pharmaceuticals, 2025)
# Values joined by “and” are separate entries in the source; they are usually repeats but may differ in a detail not shown here. Equal values may be shown once. Read-outs that look alike come from different tables or passages of the source.
# Experiments:
# [1] = tested on: human colorectal carcinoma (HCT-116); assay: MTT cytotoxicity assay, HCT-116; details: for IC50: Homo sapiens, HCT-116, read-out: IC50 HCT-116; for SI (selectivity index) HCT-116: WI-38 vs HCT-116
# hepatoblastoma (HePG-2) = assay: MTT cytotoxicity assay, HePG-2; details: for IC50: Homo sapiens, HepG2, read-out: IC50 HePG-2; for SI (selectivity index) HePG-2: WI-38 vs HePG-2
# [2] = tested on: breast adenocarcinoma (MCF-7); assay: MTT cytotoxicity assay, MCF-7; details: for IC50: Homo sapiens, MCF7, read-out: IC50 MCF-7; for SI (selectivity index) MCF-7: WI-38 vs MCF-7
# [3] = tested on: anti-apoptotic protein MCL-1 in MCF-7; assay: MCL-1 expression in MCF-7 cells (ELISA); type: cell-based, human
# Description: (§1) Apoptosis is regulated by intrinsic pathways such as the B-cell lymphoma-2 (BCL-2) family. […] MCL-1, one of the BCL-2 family members, is likely to have a significant role in cell death. The expression of MCL-1 and BCL-2 in MCF-7 cells treated with different concentrations was studied.
# (§2) Apoptosis of the MCF-7 cancer cell line was measured using the Human MCL1eia kit (ELISA Kit) for the MCL-1 enzyme assay and the Invitrogen Zymed® Bcl-2 ELISA Kit for the BCL-2 enzyme assay. The ROBONIK P2000 ELISA READER was used for analysis.
# [4] = tested on: anti-apoptotic protein BCL-2 in MCF-7; assay: BCL-2 expression in MCF-7 cells (ELISA); type: cell-based, human
# Description: as §1, §2
# MCF-7 cell line = assay: Cell cycle analysis (propidium iodide, flow cytometry); type: cell-based, human
# Text: Cell cycle analysis is used to quantify DNA content distribution via flow cytometry at various cell cycle stages (pre-G1, G1, S, and G2/M). Compound 24 was selected to analyze its effect on cell cycle progression in the MCF-7 cell line at different concentrations.
# Cancer cell line MCF-7 was stained with ab139418_Propidium Iodide (DNA stain) and analyzed using a FACSCalibur flow cytometer.
# [5] = tested on: WI-38 normal fibroblast cell line; assay: MTT cytotoxicity against normal human cells; type: cell-based; details: for IC50: Homo sapiens
# Description: The evaluation was conducted using a 3-(4,5-dimethylthiazol-2-yl)-2,5-diphenyltetrazolium bromide (MTT) assay, as described by the authors of [50, 51]. The cell lines were obtained from ATCC. For comparative purposes, standard drugs, such as doxorubicin and erlotinib, were employed.
# [6] = tested on: HCT-116, HePG-2, and MCF-7; assay: MTT cytotoxicity, summary over the examined cancer cell lines; details: Homo sapiens
# HER2 = biological target: T1, HER2 (Homo sapiens, UniProt P04626); assay: In vitro luminescent HER2 tyrosine kinase assay (Kinase-Glo Max); type: biochemical; details: read-out: Kinase Inhibition IC50 HER2
# T1 construct: purchased BPS Bioscience 40721
# Description: […]. Erlotinib was probed as the standard drug in the EGFR inhibition assay, while lapatinib was tested as the […]. […].
# EGFR and HER2 kinase inhibitory activities were determined based on the manufacturer’s guidelines (EGFR Kinase Assay Kit Catalog no. 40321 and HER2 Kinase Assay Kit Catalog no. 40721, BPS Bioscience, San Diego, CA).
# EGFR = biological target: T2, EGFR (Homo sapiens, UniProt P00533); assay: In vitro luminescent EGFR tyrosine kinase assay (Kinase-Glo Max); type: biochemical; details: read-out: Kinase Inhibition IC50 EGFR
# T2 construct: purchased BPS Bioscience 40321
# [7] = read-out: IC50 range against the selected cell lines
# [8] = normal fibroblast WI-38, read-out: IC50 WI-38
# [9] = read-out: average IC50 versus the examined cell lines
# T1 sequence (P04626 23-1255): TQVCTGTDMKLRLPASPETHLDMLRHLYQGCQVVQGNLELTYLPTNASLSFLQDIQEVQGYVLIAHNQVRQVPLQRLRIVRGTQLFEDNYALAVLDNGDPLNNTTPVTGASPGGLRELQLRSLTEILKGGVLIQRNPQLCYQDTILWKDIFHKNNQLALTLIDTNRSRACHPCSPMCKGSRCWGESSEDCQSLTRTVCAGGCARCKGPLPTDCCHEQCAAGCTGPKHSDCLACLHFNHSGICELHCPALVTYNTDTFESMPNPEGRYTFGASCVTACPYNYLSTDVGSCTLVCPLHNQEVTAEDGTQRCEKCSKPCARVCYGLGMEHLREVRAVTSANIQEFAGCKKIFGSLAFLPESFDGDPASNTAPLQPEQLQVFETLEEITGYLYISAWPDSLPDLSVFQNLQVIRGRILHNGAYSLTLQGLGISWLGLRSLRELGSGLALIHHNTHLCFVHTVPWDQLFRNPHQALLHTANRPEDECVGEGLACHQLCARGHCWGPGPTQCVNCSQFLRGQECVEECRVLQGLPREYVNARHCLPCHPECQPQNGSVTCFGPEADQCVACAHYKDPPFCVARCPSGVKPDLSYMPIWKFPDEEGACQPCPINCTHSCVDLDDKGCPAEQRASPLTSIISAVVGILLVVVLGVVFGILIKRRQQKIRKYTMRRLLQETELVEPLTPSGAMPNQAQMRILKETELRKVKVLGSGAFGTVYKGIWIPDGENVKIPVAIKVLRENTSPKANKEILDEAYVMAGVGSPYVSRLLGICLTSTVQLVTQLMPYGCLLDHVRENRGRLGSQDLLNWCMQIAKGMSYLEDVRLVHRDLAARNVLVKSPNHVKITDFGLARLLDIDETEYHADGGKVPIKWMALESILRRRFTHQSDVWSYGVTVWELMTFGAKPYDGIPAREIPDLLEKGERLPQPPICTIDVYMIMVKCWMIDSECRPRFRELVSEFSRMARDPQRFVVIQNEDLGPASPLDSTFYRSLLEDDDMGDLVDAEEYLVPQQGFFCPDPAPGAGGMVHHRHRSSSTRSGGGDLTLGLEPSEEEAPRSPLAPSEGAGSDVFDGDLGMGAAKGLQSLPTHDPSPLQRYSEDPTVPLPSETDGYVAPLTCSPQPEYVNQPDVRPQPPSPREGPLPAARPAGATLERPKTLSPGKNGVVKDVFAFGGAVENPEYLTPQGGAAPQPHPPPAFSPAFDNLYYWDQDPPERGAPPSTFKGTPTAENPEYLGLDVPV
# T2 sequence (P00533 25-1210): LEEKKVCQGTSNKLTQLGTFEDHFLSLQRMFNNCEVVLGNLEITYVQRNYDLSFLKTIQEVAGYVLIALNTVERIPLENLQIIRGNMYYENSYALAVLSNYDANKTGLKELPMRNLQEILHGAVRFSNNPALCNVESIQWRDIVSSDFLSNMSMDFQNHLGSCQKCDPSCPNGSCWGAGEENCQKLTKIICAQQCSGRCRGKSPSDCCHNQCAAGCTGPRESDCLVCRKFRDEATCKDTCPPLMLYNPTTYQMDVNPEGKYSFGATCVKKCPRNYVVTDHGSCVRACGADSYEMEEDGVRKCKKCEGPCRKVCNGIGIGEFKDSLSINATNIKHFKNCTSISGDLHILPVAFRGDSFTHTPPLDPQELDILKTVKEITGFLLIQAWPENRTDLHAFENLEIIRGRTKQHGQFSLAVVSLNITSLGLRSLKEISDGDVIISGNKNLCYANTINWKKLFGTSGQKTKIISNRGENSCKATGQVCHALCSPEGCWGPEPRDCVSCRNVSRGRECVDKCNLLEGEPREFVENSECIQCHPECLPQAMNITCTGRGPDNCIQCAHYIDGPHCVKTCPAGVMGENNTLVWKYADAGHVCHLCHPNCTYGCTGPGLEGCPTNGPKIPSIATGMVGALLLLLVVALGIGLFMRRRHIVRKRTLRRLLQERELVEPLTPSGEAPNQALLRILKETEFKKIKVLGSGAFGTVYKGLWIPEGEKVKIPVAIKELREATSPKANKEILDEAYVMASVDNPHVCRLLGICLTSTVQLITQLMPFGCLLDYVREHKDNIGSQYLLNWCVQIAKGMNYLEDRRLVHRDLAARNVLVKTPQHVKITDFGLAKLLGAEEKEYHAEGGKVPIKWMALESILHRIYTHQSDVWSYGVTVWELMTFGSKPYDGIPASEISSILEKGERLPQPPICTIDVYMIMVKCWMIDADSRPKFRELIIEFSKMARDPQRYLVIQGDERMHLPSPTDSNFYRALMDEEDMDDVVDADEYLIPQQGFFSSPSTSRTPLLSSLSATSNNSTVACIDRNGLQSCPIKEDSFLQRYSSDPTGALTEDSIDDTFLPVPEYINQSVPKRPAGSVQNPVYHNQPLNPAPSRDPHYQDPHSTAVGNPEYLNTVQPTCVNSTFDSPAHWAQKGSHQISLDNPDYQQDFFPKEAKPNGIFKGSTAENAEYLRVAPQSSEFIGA
Compound,IC50 [1],IC50 (hepatoblastoma (HePG-2)),IC50 [2],also measured
"COc1ccc(C(C)=NNC(=O)CN2C(=O)NC(c3ccccc3)(c3ccccc3)C2=O)cc1 [Compound 16, 2-(2,5-Dioxo-4,4-diphenylimidazolidin-1-yl)-N′-(1-(4-methoxyphenyl)ethylidene)acetohydrazide]",36.5 ± 2.4 µM,27.3 ± 2 µM,35.8 ± 2.1 µM,–
"COc1ccccc1C(C)=NNC(=O)CN1C(=O)NC(c2ccccc2)(c2ccccc2)C1=O [Compound 14, 2-(2,5-Dioxo-4,4-diphenylimidazolidin-1-yl)-N′-(1-(2-methoxyphenyl)ethylidene)acetohydrazide]",74 ± 3.9 µM,63.3 ± 3.8 µM,59.1 ± 3.4 µM,–
"CC(=NNC(=O)CN1C(=O)NC(c2ccccc2)(c2ccccc2)C1=O)c1cccs1 [Compound 26, 2-(2,5-Dioxo-4,4-diphenylimidazolidin-1-yl)-N′-(1-(thiophen-2-yl)ethylidene)acetohydrazide]",87.5 ± 4.6 µM,32.3 ± 2.2 µM,76.8 ± 4.2 µM,–
"CC(=NNC(=O)CN1C(=O)NC(c2ccccc2)(c2ccccc2)C1=O)c1ccc(C(F)(F)F)cc1 [Compound 12, 2-(2,5-Dioxo-4,4-diphenylimidazolidin-1-yl)-N′-(1-(4-(trifluoromethyl)phenyl)ethylidene)acetohydrazide]",52.5 ± 3 µM,47.7 ± 2.7 µM,45.8 ± 2.4 µM,–
"C#Cc1cccc(Nc2ncnc3cc(OCCOC)c(OCCOC)cc23)c1 [Erlotinib, reference compound]",8.53 ± 0.5 µM,7.9 ± 0.6 µM,5.18 ± 0.4 µM,"MCL-1 expression level ([3]; 2 µM): 560.59 pg/mL; MCL-1 expression level ([3]; 10 μM): 162.37 pg/mL; BCL-2 expression level ([4]; 2 µM): 13.96 ng/mL; BCL-2 expression level ([4]; 10 μM): 3.73 ng/mL; Comment (cell cycle arrest) (MCF-7 cell line): Cell cycle arrest at G2/M; %G0–G1 (MCF-7 cell line; 2 µM): 46.12%; %G2/M (MCF-7 cell line; 2 µM): 31.05%; %S (MCF-7 cell line; 2 µM): 22.83%; %G0–G1 (MCF-7 cell line; 10 μM): 35.89%; %G2/M (MCF-7 cell line; 10 μM): 48.39%; %S (MCF-7 cell line; 10 μM): 15.72%; Comment (cell cycle arrest) (MCF-7 cell line; listed as erlotinib): cell cycle arrest appeared at the G2/M phase; IC50 ([5]; WI-38, read-out: IC50 WI-38): 46.5 µM; IC50 [6, 7]: 5.18 to 8.53 µM"
"COc1cccc2c1C(=O)c1c(O)c3c(c(O)c1C2=O)C[C@@](O)(C(=O)CO)C[C@@H]3O[C@H]1C[C@H](N)[C@H](O)[C@H](C)O1 [Doxorubicin, reference compound]",–,4.5 ± 0.2 µM,–,"IC50 [6, 7]: 4.17 to 5.23 µM"
"CC(=NNC(=O)CN1C(=O)NC(c2ccccc2)(c2ccccc2)C1=O)c1ccccn1 [Compound 20, 2-(2,5-Dioxo-4,4-diphenylimidazolidin-1-yl)-N′-(1-(pyridin-2-yl)ethylidene)acetohydrazide]",46.7 ± 2.7 µM,49.1 ± 2.8 µM,32.4 ± 1.9 µM,–
"CC(=NNC(=O)CN1C(=O)NC(c2ccccc2)(c2ccccc2)C1=O)c1cccc2ccccc12 [Compound 23, 2-(2,5-Dioxo-4,4-diphenylimidazolidin-1-yl)-N′-(1-(naphthalen-1-yl)ethylidene)acetohydrazide]",34.4 ± 2.3 µM,31.8 ± 2.1 µM,28.1 ± 1.7 µM,–
"CC(=NNC(=O)CN1C(=O)NC(c2ccccc2)(c2ccccc2)C1=O)c1cccnc1 [Compound 21, 2-(2,5-Dioxo-4,4-diphenylimidazolidin-1-yl)-N′-(1-(pyridin-3-yl)ethylidene)acetohydrazide]",19.2 ± 1.5 µM,11.5 ± 1 µM,8.61 ± 0.6 µM,"IC50 (HER2): 1.17 ± 0.04 µM; IC50 (EGFR): 1.61 ± 0.07 µM; SI (selectivity index) HCT-116 [1]: 3.1 and 3.15; SI (selectivity index) HePG-2 (hepatoblastoma (HePG-2)): 5.2 and 5.28; SI (selectivity index) MCF-7 [2]: 7.06; IC50 [5, 8]: 60.8 µM; IC50 WI-38 ([5]; normal fibroblast WI-38): low cytotoxicity; IC50 [6, 9]: 13.1 µM"
"CC(=NNC(=O)CN1C(=O)NC(c2ccccc2)(c2ccccc2)C1=O)c1ccccc1C [Compound 8, 2-(2,5-Dioxo-4,4-diphenylimidazolidin-1-yl)-N′-(1-(o-tolyl)ethylidene)acetohydrazide]",37.6 ± 2.3 µM,25.4 ± 1.8 µM,34.1 ± 2 µM,–
"COc1cccc(C(C)=NNC(=O)CN2C(=O)NC(c3ccccc3)(c3ccccc3)C2=O)c1 [Compound 15, 2-(2,5-Dioxo-4,4-diphenylimidazolidin-1-yl)-N′-(1-(3-methoxyphenyl)ethylidene)acetohydrazide]",53.9 ± 3.1 µM,45.1 ± 2.5 µM,55.3 ± 3.2 µM,–
"CC(=NNC(=O)CN1C(=O)NC(c2ccccc2)(c2ccccc2)C1=O)c1ccccc1 [Compound 7, 2-(2,5-Dioxo-4,4-diphenylimidazolidin-1-yl)-N′-(1-phenylethylidene)acetohydrazide]",47.5 ± 2.8 µM,55.8 ± 3.3 µM,38.3 ± 2.2 µM,–
"COc1ccc(C(C)=NNC(=O)CN2C(=O)NC(c3ccccc3)(c3ccccc3)C2=O)cc1OC [Compound 17, N′-(1-(3,4-Dimethoxyphenyl)ethylidene)-2-(2,5-dioxo-4,4-diphenylimidazolidin-1-yl)acetohydrazide]",26.8 ± 2 µM,19.6 ± 1.7 µM,15.7 ± 1.3 µM,–
"COc1cc(C(C)=NNC(=O)CN2C(=O)NC(c3ccccc3)(c3ccccc3)C2=O)cc(OC)c1OC [Compound 18, 2-(2,5-Dioxo-4,4-diphenylimidazolidin-1-yl)-N′-(1-(3,4,5-trimethoxyphenyl)ethylidene)acetohydrazide]",39.6 ± 2.4 µM,37.2 ± 2.3 µM,26 ± 1.6 µM,"IC50 [5, 8]: 60.8 µM"
"CC(=NNC(=O)CN1C(=O)NC(c2ccccc2)(c2ccccc2)C1=O)c1ccc([N+](=O)[O-])cc1 [Compound 19, 2-(2,5-Dioxo-4,4-diphenylimidazolidin-1-yl)-N′-(1-(4-nitrophenyl)ethylidene)acetohydrazide]",31.3 ± 2.1 µM,19.9 ± 1.8 µM,20.4 ± 1.5 µM,–
"CC(=NNC(=O)CN1C(=O)NC(c2ccccc2)(c2ccccc2)C1=O)c1ccc(F)cc1 [Compound 11, 2-(2,5-Dioxo-4,4-diphenylimidazolidin-1-yl)-N′-(1-(4-fluorophenyl)ethylidene)acetohydrazide]",28.3 ± 2.1 µM,21.1 ± 1.8 µM,14.2 ± 1.2 µM,–
"CC(=NNC(=O)CN1C(=O)NC(c2ccccc2)(c2ccccc2)C1=O)c1ccco1 [Compound 25, 2-(2,5-Dioxo-4,4-diphenylimidazolidin-1-yl)-N′-(1-(furan-2-yl)ethylidene)acetohydrazide]",49.9 ± 2.9 µM,34.6 ± 2.1 µM,47.3 ± 2.6 µM,–
"CC(=NNC(=O)CN1C(=O)NC(c2ccccc2)(c2ccccc2)C1=O)c1ccc(C)cc1 [Compound 9, 2-(2,5-Dioxo-4,4-diphenylimidazolidin-1-yl)-N′-(1-(p-tolyl)ethylidene)acetohydrazide]",71.2 ± 3.8 µM,29.7 ± 2.1 µM,69 ± 3.9 µM,–
"CC(=NNC(=O)CN1C(=O)NC(c2ccccc2)(c2ccccc2)C1=O)c1ccc(OC(F)(F)F)cc1 [Compound 13, 2-(2,5-Dioxo-4,4-diphenylimidazolidin-1-yl)-N′-(1-(4-(trifluoromethoxy)phenyl)ethylidene)acetohydrazide]",20.1 ± 1.7 µM,13.9 ± 1.2 µM,9.58 ± 0.8 µM,"IC50 (HER2): 0.28 ± 0.01 µM; IC50 (EGFR): 0.61 ± 0.02 µM; SI (selectivity index) HCT-116 [1]: 2.2 and 2.25; SI (selectivity index) HePG-2 (hepatoblastoma (HePG-2)): 3.2 and 3.25; SI (selectivity index) MCF-7 [2]: 4.7 and 4.73; IC50 [5, 8]: 45.4 µM; IC50 WI-38 ([5]; normal fibroblast WI-38): low cytotoxicity; IC50 [6, 9]: 14.5 µM"
"CC(=NNC(=O)CN1C(=O)NC(c2ccccc2)(c2ccccc2)C1=O)c1ccc(Cl)s1 [Compound 27, N′-(1-(5-Chlorothiophen-2-yl)ethylidene)-2-(2,5-dioxo-4,4-diphenylimidazolidin-1-yl)acetohydrazide]",33.2 ± 2.2 µM,16.8 ± 1.6 µM,19.7 ± 1.5 µM,–
"CC(=NNC(=O)CN1C(=O)NC(c2ccccc2)(c2ccccc2)C1=O)c1ccncc1 [Compound 22, 2-(2,5-Dioxo-4,4-diphenylimidazolidin-1-yl)-N′-(1-(pyridin-4-yl)ethylidene)acetohydrazide]",26 ± 1.9 µM,17.2 ± 1.6 µM,13.1 ± 1.1 µM,–
